Where “and” joins values, the source holds several entries; their conditions need not be identical. Equal entries are not always repeated.
Test system: cos-7 cells
Test: DNA transfection: luciferase expression relative to Lipofectamine 2000
Assay type: cell-based
Details: for Luciferase expression as a percentage of that achieved using Lipofectamine 2000: 300 ng Luciferase DNA per well; for Luciferase expression as a percentage of that achieved using Lipofectamine 2000 / % of the luciferase activity obtained from the use of Lipofectamine 2000: luciferase assay after 48 hours; for % of the luciferase activity obtained from the use of Lipofectamine 2000: 300 ng DNA per well; for luciferase expression (second part of table, values relative to LIPO2000): 300 ng of DNA per well
Procedure: 14,000 cos-7 cells (ATCC, Manassas, Va.) were seeded into each well of a solid white or clear 96 well plate (Corning-Costar, Kennebunk, Me.) and allowed to attached overnight in growth medium, composed of: 500 ml phenol red minus DMEM, 50 ml heat inactivated FBS, 5 ml penicillin/streptomycin (Invitrogen, Carlsbad, Calif.).
A small liquot of lipid was tranferred to an Eppendorf tube. Based on the mass of the lipid in the tube, sterile 25 mM sodium acetate buffer was added to each tube to yield a concentration of 60 mg/ml. The resulting mixture was vortexed for approximately 20 minutes until the lipid was fully dissolved. DNA was prepared based on 300 ng DNA per well of a 96-well plate. 291 μg of Lc DNA was dissolved in 9210 μl of 25 mM sodium acetate buffer. Aliquots of 30 μl of DNA solution were added to each well expect for the last column which was reserved for the Lipo2000 standard. For the last column of the plate, 61 μg of DNA was added to 1940 μl Optimem. 150 μl of media/Optimem was added to each well of plates. 50 μl of lipid solution was aliquoted into wells of robot plate. The following amounts were aliquoted to obtain the correct ratios of DNA to lipid:
In quadruplicate, 30 μl of lipid was aliquoted onto DNA in four rows for each ratio. For the Lipo2000 control (2.5 w/w ratio to DNA), 152.5 μg of Lipo sample was aliquoted into 1847.5 μl of Optimem. 30 μl of this solution was aliquoted onto DNA in the Optimem in the last columns of each plate. The plates were incubated for 15-20 minutes, and then 36.5 μl of lipid+DNA complexes was transferred into 150 μl of media/Optimem, then add to cells. The media was aspirated off the cells, and 105 μl of the lipid/DNA/media/Optimem solution was added to the cells. The luciferase assay was performed after 48 hours.
Luminescence was analyzed using bright-glo assay kits (Promega). Briefly, 100 μl of bright-glo solution was added to each well of the microtiter plate containing media and cells. Luminescence was measured using a Mithras Luminometer (Berthold, Oak Ridge, Tenn.). In some cases, a neutral density filter (Chroma, Brattleboro, Vt.) was used to prevent saturation of the luminometer. A standard curve for Luciferase was generated by titration of Luciferase enzyme (Promega) into growth media in white microtiter plates. Luciferase in ng per well are calculated for each of the lipids at 2.5 w/w, 5 w/w, 10 w/w, 15 w/w, 20 w/w, and 25 w/w lipid to DNA based on the standard curve.
The table below summarizes the data as a % of the luciferase activity obtained from the use of Lipofectamine 2000. The table indicates the best lipids for transfection.

Row | SMILES | Luciferase expression as a percentage of that achieved using Lipofectamine 2000 (lipid/DNA 2.5 w/w) | Luciferase expression as a percentage of that achieved using Lipofectamine 2000 (lipid/DNA 5 w/w) | Luciferase expression as a percentage of that achieved using Lipofectamine 2000 (lipid/DNA 10 w/w) | Luciferase expression as a percentage of that achieved using Lipofectamine 2000 (lipid/DNA 15 w/w) | Luciferase expression as a percentage of that achieved using Lipofectamine 2000 (lipid/DNA 20 w/w) | Luciferase expression as a percentage of that achieved using Lipofectamine 2000 (lipid/DNA 25 w/w) | % of the luciferase activity obtained from the use of Lipofectamine 2000 (2.5 w/w lipid to DNA) | % of the luciferase activity obtained from the use of Lipofectamine 2000 (5 w/w lipid to DNA) | % of the luciferase activity obtained from the use of Lipofectamine 2000 (10 w/w lipid to DNA) | % of the luciferase activity obtained from the use of Lipofectamine 2000 (15 w/w lipid to DNA) | % of the luciferase activity obtained from the use of Lipofectamine 2000 (20 w/w lipid to DNA) | % of the luciferase activity obtained from the use of Lipofectamine 2000 (25 w/w lipid to DNA) | luciferase expression (second part of table, values relative to LIPO2000) (lipid/DNA 2.5 w/w) | luciferase expression (second part of table, values relative to LIPO2000) (lipid/DNA 5 w/w) | luciferase expression (second part of table, values relative to LIPO2000) (lipid/DNA 10 w/w) | luciferase expression (second part of table, values relative to LIPO2000) (lipid/DNA 15 w/w) | luciferase expression (second part of table, values relative to LIPO2000) (lipid/DNA 20 w/w) | luciferase expression (second part of table, values relative to LIPO2000) (lipid/DNA 25 w/w)
1 | CCCCCCCCCCCCCCCOC(=O)CCN(CCCO)CCC(=O)OCCCCCCCCCCCCCCC [LG20] | 2.0% | 2.5% | 0.4% | 0.2% | 0.1% | 0.1% | – | – | – | – | – | – | – | – | – | – | – | –
2 | CCCCCCCCCCOC(=O)CCN(CC)CCN(CC)CCC(=O)OCCCCCCCCCC [LB61] | 0.1% | 0.1% | 0.1% | 0.1% | 0.1% | 0.1% | – | – | – | – | – | – | – | – | – | – | – | –
3 | CCCCCCCCCCOC(=O)CCN(CCC(=O)OCCCCCCCCCC)CC1CCCO1 (stereo not drawn) [LB15] | 0.1% | 0.1% | 0.1% | 0.1% | 0.1% | 0.1% | – | – | – | – | – | – | – | – | – | – | – | –
4 | CCCCCCCCCCCCCCOC(=O)CC[N+](C)(CCCOC)CCC(=O)OCCCCCCCCCCCCCC.[I-] [QF1] | 0.4% | 0.3% | 0.4% | 0.3% | 0.3% | 0.3% | – | – | – | – | – | – | – | – | – | – | – | –
5 | CCCCCCCCCCCCCCOC(=O)CCN(CCCN1CCOCC1)CCC(=O)OCCCCCCCCCCCCCC [LF91] | 0.5% | 0.5% | 0.8% | 1.4% | 1.3% | 1.6% | – | – | – | – | – | – | – | – | – | – | – | –
6 | CCCCCCCCCCCCCCCOC(=O)CC[N+](C)(CCC[N+](C)(CCC(=O)OCCCCCCCCCCCCCCC)CCC(=O)OCCCCCCCCCCCCCCC)CCC(=O)OCCCCCCCCCCCCCCC [QG100] | – | – | – | – | – | – | 11.2% | 32.1% | 57.1% | 102.6% | 93.0% | 94.5% | 11.2 | 32.1 | 57.1 | 102.6 | 93.0 | 94.5
7 | CCCCCCCCCCCCOC(=O)CCN(CCCn1ccnc1)CCC(=O)OCCCCCCCCCCCC [LD93] | 1.8% | 4.2% | 3.9% | 24.6% | 15.8% | 10.8% | – | – | – | – | – | – | – | – | – | – | – | –
8 | CCCCCCCCCCOC(=O)CCN(C)CCN(C)CCC(=O)OCCCCCCCCCC [LB60] | 0.4% | 0.4% | 0.4% | 0.4% | 0.4% | 0.4% | – | – | – | – | – | – | – | – | – | – | – | –
9 | CCCCCCCCCCCCCCOC(=O)CCN(CCCCO)CCC(=O)OCCCCCCCCCCCCCC [LF28] | 0.1% | 0.1% | 0.1% | 0.2% | 0.3% | 0.4% | – | – | – | – | – | – | – | – | – | – | – | –
10 | CCCCCCCCCCCCCCCOC(=O)CCN(CCC(=O)OCCCCCCCCCCCCCCC)CCN1CCOCC1 [LG90] | 0.1% and 0.6% | 0.1% and 0.6% | 0.0% and 0.4% | 0.0% and 0.4% | 0.1% and 0.4% | 0.0% and 0.4% | – | – | – | – | – | – | – | – | – | – | – | –
11 | CCCCCCCCCCOC(=O)CCN(CCC(=O)OCCCCCCCCCC)C(C)(CO)CO [LB26] | 0.1% | 0.1% | 0.1% | 0.1% | 0.1% | 0.1% | – | – | – | – | – | – | – | – | – | – | – | –
12 | CCCCCCCCCCCCOC(=O)CCN(CCC(=O)OCCCCCCCCCCCC)CCN(CC)CC [LD75] | 0.1% | 0.1% | 0.1% | 0.2% | 0.2% | 0.2% | – | – | – | – | – | – | – | – | – | – | – | –
13 | CCCCCCCCCCOC(=O)CCN(CCCCCCO)CCC(=O)OCCCCCCCCCC [LB36] | 0.1% | 0.1% | 0.1% | 0.1% | 0.1% | 0.1% | – | – | – | – | – | – | – | – | – | – | – | –
14 | CCCCCCCCCCCCOC(=O)CCN(CCC(=O)OCCCCCCCCCCCC)CCN1CCCCC1 [LD82] | 0.1% | 0.1% | 0.2% | 0.3% | 0.4% | 0.7% | – | – | – | – | – | – | – | – | – | – | – | –
15 | CCCCCCCCCCCCCCCCCCOC(=O)CCN(CCC(=O)OCCCCCCCCCCCCCCCCCC)CC(OC)OC [LH13] | 0.0% | 0.0% | 0.0% | 0.0% | 0.0% | 0.0% | – | – | – | – | – | – | – | – | – | – | – | –

Reference: patent US9006487B2, “Amine-containing lipids and uses thereof” (Massachusetts Institute of Technology, priority 2005, dated 2015)
